From patent publication US20070043108A1, “Use of equol for ameliorating or preventing neuropsychiatric and neurodegenerative diseases or disorders” (priority 2002, published 2007)
“And” between values parts separate entries of the source, which are not always exact repeats. Identical values can stand only once.

Experiments:
[1] = humans; cited from earlier work
[2] = Competition and binding studies of equol with other labelled steroids
[3] = tested on: adult Long-Evans male rats; conditions: equol-treated male rats vs control, previously reported in US 2005/0245492; cited from earlier work
[4] = tested on: mid-aged Long-Evans female rats; experiment: Example 17: Porsolt forced swim test and body weight in mid-aged female rats; assay type: in vivo, rat
Protocol: The female rats were exposed (from time of conception) to either a phytoestrogen-rich (Phyto-600) or a phytoestrogen-free (Phyto-free) diet.
At 12 months of age, the animals were analyzed using the Porsolt forced swim test that is a standard preclinical test with applications to humans for investigating the neurobiology of depression and of action of antidepressant agent (R. D. Porsolt, M. Pichon and M Jalfre, Nature 266: 730-732, 1977; and M. A. Geyer & A. Markou, in Psychopharmacology: The Fourth Generation of Progress, NY, Raven Press, pp. 787-798, 1995).
The test is designed to force rats to swim vigorously. Over time, some of the animals may become immobile which is considered a condition of behavioral despair. The total time an animal is immobile is an index of despair or depression. […] S. Hall, J. Comp. Psych., 18: 385-403, 1934), increased boli numbers during the test would indicate heighten emotional behavior. All of these parameters were recorded in this study and quantified by AnyMaze® computer software and the total time of the Porsolt forced swim test was 480 seconds or 8 minutes.
The animals were tested twice.
Test 1 compared diet exposure alone, shown as A in FIGS. 58-69 and labeled as “before equol injections.”
In the second stage of testing the Phyto-free fed females were injected with equol@ […] or 2.5 mg/kg via subcutaneous administration) for 8 days while the Phyto-600 fed females received dimethylsulfoxide (DMSO) vehicle control injections. (DMSO has been used in medicine due to its ability to penetrate deeply through the skin and other membranes without damaging them and ability to carry compounds into the circulation).
Test 2 assessed depressive behaviors following the equol treatments, shown as B in FIGS. 58-69 and labeled as “after equol injections.”

ERβ = molecular target: T1, ERβ (Rattus norvegicus, UniProt Q62986); experiment: Competition binding of equol enantiomers with [3H]E2 for in vitro translated ERβ
T1 construct: Full length rat ERα expression vector (pcDNA-ERα; RH Price UCSF) and ERβ expression vector (pcDNA-ERβ; T A Brown, Pfizer; made in house; host or cells: TnT-coupled rabbit reticulocyte lysate in vitro translation (Promega)
Protocol: (§1) In vitro binding studies were performed to examine the relative affinities of S— and R-enantiomeric equol with the estrogen receptors ERα and ERβ.
(§2) Synthesis of Hormone Receptor Proteins: Full length rat ERα expression vector (pcDNA-ERα; RH Price UCSF) and ERβ expression vector (pcDNA-ERβ; T A Brown, Pfizer, Groton, […].) were used to synthesize hormone receptors in vitro using the TnT-coupled reticulocyte lysate system (Promega, Madison, Wis.) with T7-RNA polymerase, during a 90 min reaction at 30° C. Translation reaction mixtures were stored at −80° C. until further use.
(§3) Saturation isotherms: In order to calculate and establish the binding affinity of the S-equol and R-equol enantiomers for ERα and ERβ, 100 μL aliquots of reticulocyte lysate supernatant were incubated at optimal time and temperature; 90 min at room temperature (ERβ) and 18 hrs at 4° C. (ERα), with increasing (0.01-100 nm) concentrations of [3H] […] These times were determined empirically and represent optimal binding of receptor with estrogen. Nonspecific binding was assessed using a 300-fold excess of the ER agonist diethylstilbestrol, in parallel tubes. Following incubation, bound and unbound [3H]E2 were separated by passing the incubation reaction through a 1 mL lipophilic Sephadex LH-20 (Sigma-Aldrich Co., Saint Louis, Mo.) column Columns were constructed by packing a disposable pipette tip (1 mL; Labcraft, Curtin Matheson Scientific, Inc, Houston, Tex.) with TEGMD (10 mm Tris-Cl, 1.5 mm EDTA, 10% glycerol, 25 mm molybdate, and 1 mm dithiothreitol, pH 7.4)-saturated Sephadex according to previously published protocols (Wanda et al., 1986; O'Keefe and Handa, 1990). For chromatography, the columns were re-equilibrated with TEGMD (100 μL), and the incubation reactions were added individually to each column and allowed to incubate on the column for an additional 30 min. Following this incubation, 600 μL of TEGMD were added to each column, flow-through was collected, 4 mL scintillation fluid was added, and samples were counted (5 min each) in an 2900 TR Packard scintillation counter (Packard Bioscience, Meriden, Conn.).
(§4) Competition binding studies were used to assess the estrogenic properties of equol's S-equol and R-equol enantiomers. Based on the ability of S and R to compete with [3H]

ERα = molecular target: T2, ERα (Rattus norvegicus, UniProt P06211); experiment: Competition binding of equol enantiomers with [3H]E2 for in vitro translated ERα
T2 construct: Full length rat ERα expression vector (pcDNA-ERα; RH Price UCSF); made in house; host or cells: TnT-coupled rabbit reticulocyte lysate in vitro translation (Promega)
T2 sequence (P06211 1-600): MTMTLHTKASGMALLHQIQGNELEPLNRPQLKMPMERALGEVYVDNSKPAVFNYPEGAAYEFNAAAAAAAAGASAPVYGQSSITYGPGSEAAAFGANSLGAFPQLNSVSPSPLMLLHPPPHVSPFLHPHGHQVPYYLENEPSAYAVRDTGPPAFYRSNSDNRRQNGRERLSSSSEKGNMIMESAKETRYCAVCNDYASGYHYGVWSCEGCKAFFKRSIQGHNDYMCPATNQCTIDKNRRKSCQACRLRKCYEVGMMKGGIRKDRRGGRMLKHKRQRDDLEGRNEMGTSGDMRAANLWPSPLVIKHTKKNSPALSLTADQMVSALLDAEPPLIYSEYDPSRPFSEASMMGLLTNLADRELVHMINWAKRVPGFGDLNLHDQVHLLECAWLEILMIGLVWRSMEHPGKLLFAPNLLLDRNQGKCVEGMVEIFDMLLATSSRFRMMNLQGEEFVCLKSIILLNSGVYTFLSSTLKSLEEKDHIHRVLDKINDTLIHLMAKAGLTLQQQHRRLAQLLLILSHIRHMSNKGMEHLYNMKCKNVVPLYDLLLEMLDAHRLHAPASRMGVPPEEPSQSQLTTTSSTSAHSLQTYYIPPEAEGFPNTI
Protocol: as §1, §2, §3, §4

[5] = Test 2, Phyto-free females after equol for 8 days
[6] = competition with [3H]E2, in vitro translated ER

T1 sequence (Q62986 whole entry): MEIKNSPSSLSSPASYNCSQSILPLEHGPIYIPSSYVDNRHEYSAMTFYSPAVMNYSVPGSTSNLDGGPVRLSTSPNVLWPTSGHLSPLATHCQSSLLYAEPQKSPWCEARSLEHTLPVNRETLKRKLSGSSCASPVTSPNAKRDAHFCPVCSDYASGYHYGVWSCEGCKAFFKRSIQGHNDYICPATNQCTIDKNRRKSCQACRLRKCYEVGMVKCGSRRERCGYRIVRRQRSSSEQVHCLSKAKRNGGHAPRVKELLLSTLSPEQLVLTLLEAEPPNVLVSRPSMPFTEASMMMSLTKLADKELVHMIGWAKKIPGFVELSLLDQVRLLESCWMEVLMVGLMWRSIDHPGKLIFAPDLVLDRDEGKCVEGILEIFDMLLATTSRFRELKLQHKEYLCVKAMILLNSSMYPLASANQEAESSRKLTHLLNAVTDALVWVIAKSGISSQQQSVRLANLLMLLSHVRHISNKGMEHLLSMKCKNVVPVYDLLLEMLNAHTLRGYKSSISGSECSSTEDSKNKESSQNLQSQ

Oc1ccc(C2COc3cc(O)ccc3C2)cc1 (racemic) [equol, 7-hydroxy-3(4′hydroxyphenyl)-chroman]
proportion circulating in the free or unbound form in plasma [1]: Approximately 50%
binding to [3H]E2, [3H]T, [3H]DHEA, [3H]CORT and [3H]progesterone [2]: without any occurrences of binding
5α-DHT [3]: significant reductions
prostate weight [3]: significant reductions
serum testosterone, luteinizing hormone (LH) or 17β-estradiol levels [3]: no alteration
total distance traveled ([4]; Test 2, Phyto-free females after equol 5 mg/day sc for 8 days): increased and similar to control values
number of boli [4, 5]: reduced after equol treatments
number of dives [4, 5]: significantly reduced and comparable to control levels
total time immobile [4, 5]: significantly reduced and similar to controls
total time mobile ([4]; Test 2, after vs before equol injections): significantly increased
decrease in body weight over controls ([4]; after the 8 day treatment interval): 2.6 fold
Body Weight Loss (grams) ([4]; mid-aged females, end of 8 day treatment, ±SEM): −31.2 (±4.8*) grams

Oc1ccc([C@@H]2COc3cc(O)ccc3C2)cc1 [R-equol]
affinity for ERβ, fold less (ERβ): approximately 100 fold
Kd (ERβ; [6]): 15.4 ± 1.31 nM
relative binding affinity for ERα compared with 17β-estradiol, fold less (ERα): 210.6 fold and 211 fold
Kd (ERα; [6]): 27.4 ± 3.8 nM
